Experimental data from ChEMBL document CHEMBL1136946, “The regulation of inflammatory cytokine secretion in macrophage cell line by the chemical constituents of Rhus sylvestris” (Bioorg Med Chem Lett, 2009).
The source made the active and inactive calls. The rule behind the calls is not given here.

Experiments:
RAW264.7 [1] = assay: Antiinflammatory activity in mouse RAW264.7 cells assessed as inhibition LPS-induced TNFalpha secretion at 0.01 uM after 12 hrs; assay type: functional; conditions: RAW264.7, 12 h
RAW264.7 [2] = assay: Antiinflammatory activity in mouse RAW264.7 cells assessed as inhibition LPS-induced IL6 secretion at 1 uM after 12 hrs; assay type: functional; conditions: for inhibition at 1 µM: RAW264.7, 12 h
SK-MEL-1 = assay: Cytotoxicity against human SK-MEL-1 cells by MTT assay; assay type: functional, cell-based
MCF7 = assay: Cytotoxicity against human MCF7 cells by MTT assay; assay type: functional, cell-based
HeLa = assay: Cytotoxicity against human HeLa cells by MTT assay; assay type: functional, cell-based
RAW264.7 [3] = assay: Antiinflammatory activity in mouse RAW264.7 cells assessed as inhibition LPS-induced TNFalpha secretion at 1 uM after 12 hrs; assay type: functional; conditions: RAW264.7, 12 h

| Compound | inhibition at 0.01 µM (RAW264.7 [1]) [%] | inhibition at 1 µM (RAW264.7 [2]) [%] | IC50 (SK-MEL-1) [µM] | IC50 (MCF7) [µM] | IC50 (HeLa) [µM] | inhibition at 1 µM (RAW264.7 [3]) [%] | Activity (RAW264.7 [2]) |
| --- | --- | --- | --- | --- | --- | --- | --- |
| C=C(C)C(O)CC[C@@H](C)[C@H]1CC[C@@]2(C)[C@H]3CC[C@H]4C(C)(C)C(=O)CC[C@@]45C[C@@]35CC[C@]12C (stereo not given in full) | 20.9 | 54.6 | > 50 | > 50 | > 50 |  |  |
| CC(C)=CCC[C@@H](C)[C@H]1CC[C@@]2(C)[C@@H]3CC=C4[C@@H](CC[C@H](O)C4(C)C)[C@]3(C)CC[C@]12C |  |  | > 50 | > 50 | > 50 | 80.9 |  |
| C=C(C)C(=O)CC[C@@H](C)[C@H]1CC[C@@]2(C)[C@H]3CC[C@H]4C(C)(C)C(=O)CC[C@@]45C[C@@]35CC[C@]12C | 20.9 |  | 15.9 | 30.9 | 24.8 |  | inactive |
| CC[C@H](CC[C@@H](C)[C@H]1CC[C@H]2[C@@H]3CC=C4C[C@@H](O)CC[C@]4(C)[C@H]3CC[C@]12C)C(C)C [BETA-SITOSTEROL] | 20.9 | 54.5 | > 50 | 42.1 | 46.2 |  |  |
| COc1ccc(/C=C/C(=O)c2ccc(OC)cc2O)cc1 | 20.9 |  | 41.7 | 45.4 | > 50 |  | inactive |
| CC(C)=CCC[C@@H](C)[C@H]1CC[C@@]2(C)[C@H]3CC[C@H]4C(C)(C)C(=O)CC[C@@]45C[C@@]35CC[C@]12C |  |  | > 50 | > 50 | > 50 | 15.2 | inactive |
| CC1(C)CC[C@]2(C)CC[C@]3(C)C(=CC[C@@H]4[C@@]5(C)CC[C@H](O)C(C)(C)[C@@H]5CC[C@]43C)[C@@H]2C1 [beta-AMYRIN] |  |  | > 50 | > 50 | > 50 |  |  |
| C=C(C)[C@@H]1CC[C@]2(C)CC[C@]3(C)[C@H](CC[C@@H]4[C@@]5(C)CC[C@H](O)C(C)(C)[C@@H]5CC[C@]43C)[C@@H]12 [LUPEOL] |  |  | > 50 | > 50 | > 50 |  |  |
| CC1(C)CC[C@]2(C)CC[C@]3(C)[C@H]4CC=C5[C@@H](CC[C@H](O)C5(C)C)[C@]4(C)CC[C@@]3(C)[C@@H]2C1 [GLUTINOL] | 20.9 |  | > 50 | > 50 | > 50 |  | inactive |
| CC(=O)O[C@H]1CC[C@]2(C)[C@H]3CC=C4[C@@H]5CC(C)(C)CC[C@]5(C)CC[C@@]4(C)[C@]3(C)CC[C@H]2C1(C)C [beta-AMYRIN ACETATE] | 20.9 |  | > 50 | 26.7 | > 50 |  | inactive |
